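Method: 48-hour compound exposure of cells in 96-well plates, five concentrations, linear interpolation of endpoints. GI50 marks 50% less growth. At the TGI there is no net growth.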
Key:
Assay in all cases: NCI anticancer screen, dose series, 48 h
CAKI-1 renal = system: CAKI-1 renal
OVCAR-5 ovarian = system: OVCAR-5 ovarian
SW-620 colon = system: SW-620 colon
NCI-H23 lung = system: NCI-H23 lung
EKVX NSCLC = system: EKVX NSCLC
SK-MEL-28 melanoma = system: SK-MEL-28 melanoma
HL-60(TB) leukemia = system: HL-60(TB) leukemia
SK-MEL-5 melanoma = system: SK-MEL-5 melanoma
IGROV1 ovarian = system: IGROV1 ovarian
SR leukemia = system: SR leukemia

SMILES	GI50 (CAKI-1 renal) [µM]	TGI (CAKI-1 renal) [µM]	GI50 (OVCAR-5 ovarian) [µM]	TGI (OVCAR-5 ovarian) [µM]	GI50 (SW-620 colon) [nM]	TGI (SW-620 colon) [µM]	GI50 (NCI-H23 lung) [µM]	TGI (NCI-H23 lung) [µM]	GI50 (EKVX NSCLC) [µM]	TGI (EKVX NSCLC) [µM]	GI50 (SK-MEL-28 melanoma) [nM]	TGI (SK-MEL-28 melanoma) [µM]	GI50 (HL-60(TB) leukemia) [nM]	TGI (HL-60(TB) leukemia) [µM]	GI50 (SK-MEL-5 melanoma) [µM]	TGI (SK-MEL-5 melanoma) [µM]	GI50 (IGROV1 ovarian) [nM]	TGI (IGROV1 ovarian) [µM]	GI50 (SR leukemia) [nM]	TGI (SR leukemia) [µM]
O=C(Nc1nc2ccccc2s1)Nc1ccc([N+](=O)[O-])cc1Cl	6.25	16.2	10.4	25.7	2860	7.82	3.49	14.6	11	45.1	6250	20.1	15200	> 54.7	7.3	22.1	4710	10.4	3310	> 100
N#CC1c2ccccc2C=CN1C(=O)N(c1ccccc1)c1ccccc1 (stereo not drawn)	1.64	3.63	7.45	24.3	2270	5.3	4.09	19.3	5.7	18.9	2430	5.84	2110	6.24	4.03	14.8	1760	3.66	2140	6.32
CC1(C)C(=O)C(C)(C)C1=S	–	> 100	–	> 100	–	> 100	–	> 100	–	> 100	–	> 100	–	> 100	–	> 100	–	> 100	–	> 100
CN1C(=O)C2(c3ccccc31)N(c1ccc(Cl)cc1)C(=O)C2(c1ccccc1)c1ccccc1 (stereo not drawn)	> 100	> 100	> 100	> 100	> 100000	> 100	64.7	> 100	53.3	> 100	> 100000	> 100	3420	16.5	54.5	> 100	> 100000	> 100	41700	> 100
CN(Cc1cnc2nc(N)nc(N)c2n1)c1ccc(C(=O)NC(CCC(=O)O)C(=O)O)cc1Br (stereo not drawn)	< 0.01	–	< 0.031	> 100	< 10	> 83.9	< 0.01	2.12	< 0.01	48.3	230	19.5	< 10	> 100	< 0.01	4.51	< 10	1.01	< 10	8.49
C=CC(=O)N1CC2(CC(n3nc(-c4ccc5c(cnn5C)c4)c(-c4c(Cl)c(C)cc5[nH]ncc45)c3C)C2)C1	3.95	14.3	4.03	13.9	3230	10.3	–	1.72	3.23	11.1	2440	5.44	2580	9.27	1.61	3.02	2760	8.18	1610	6.12

Source: PubChem BioAssay (NCI)
